The text below walks through data of article PMC5082894 (PLoS ONE, 2016).

The subject of one series is HIV-1 NL4-3. Put plainly: MAGI assay, HIV-1 NL4-3. The format is cell-based. The conditions noted are these: Human immunodeficiency virus 1, NL43, MAGI cells. On the procedure:
(§1) Briefly, target cells (HeLa CD4/CCR5-LTR/β-gal; 10^4/well) were plated in 96-well flat microtiter culture plates. […] The test drugs were added initially and viruses were immediately inoculated onto the cells. Forty-eight hours after viral exposure, all blue cells in each well were counted. The cytotoxicity of the compound was determined by the MTT method as previously described. All experiments were performed in triplicate and AZT was used as reference anti-HIV-1 molecule.

Another series can be described thus: Water solubility. Type of series: physicochemical.
The next series relates to HIV-1 92HT599 (B-X4). Put plainly: PBMC antiviral assay (RT activity), HIV-1 92HT599. Type of series: cell-based. The note with it: Human immunodeficiency virus 1, PBMC, 168 h; PHA-P-activated PBMCs, 125 TCID50, day 7, RT activity. On the procedure:
(§2) In order to confirm antiretroviral activity of the compounds, using a cell model closer to the pathophysiology, Peripheral Blood Mononuclear Cells (PBMCs) were separated from a buffy-coat from healthy HIV-, HCV-, HBV-seronegative blood donors by Ficoll-Hypaque density gradient centrifugation. The PBMCs were activated by incubation with 1 μg/ml phytohemagglutinin-P (PHA-P; Difco Laboratories) for three days in RPMI 1640 medium supplemented with 10% heat-inactivated fetal calf serum (FCS, +56 ◦C for 45 min), 2mM l-glutamine and a 1% antibiotic cocktail (penicillin, streptomycin, neomycin). After this mitogen activation, PBMCs were cultivated in the same culture medium supplemented with recombinant human interleukin-2 (rHuIL-2; 20 IU/mL) and treated and/or infected. […] All these viruses were amplified in vitro with PHA-P-activated blood mononuclear cells and 50% tissue culture infectious doses (TCID50) were calculated using Kärber’s formula [37], after limited-dilution titration. […] Viral replication was measured by quantifying reverse transcriptase (RT) activity in the cell culture supernatants using the Lenti RT Activity Kit (Cavidi) and AZT was used as reference anti-HIV-1 molecule. EC50 were then calculated and expressed in μM.

A further series addresses T1, MN gp120-CD4 interaction (Human immunodeficiency virus type 1 group M subtype B, UniProt P05877).
T1 construct: HIV-1 gp120 was injected over the immobilized CD4; purchased Immunodiagnostics (Massachusetts, USA)
The format is binding, HIV-1. The conditions noted are these: SPR, immobilized CD4, data not shown. On the procedure: (§3) For that purpose, CM4 sensorchips were activated with 50 μL of 0.2 M N-ethyl-N’-([…])-carbodiimide (EDC) and 0.05 M N-hydroxy-succimide (NHS) at 5 μL/min. Then soluble CD4 (10 μg/mL in 10 mM acetate buffer, pH 5), streptavidin (200 μg/mL in 10 mM acetate buffer, pH 4.2), mAb 17b (5 μg/mL in 10 mM acetate buffer, pH 5), MN gp120 (50 μg/ml in 5 mM maleate buffer, pH 6) or YU2 gp120 (50μg/mL in 10 mM acetate buffer, pH 4.8) were injected at 5 μL/min over one of the EDC/NHS activated flow cell until levels of 1200 (for sCD4), 700 (for mAb 17b), 3000 (for streptavidin), or 4500 (for gp120s) response units (RU) were achieved. HS (1 mM in phosphate-buffered saline) was biotinylated through its reducing end by reductive amination with 10 mM of biotin-LC-Hydrazine (Pierce) and captured on the streptavidin surface (20 μg/mL in 10 mM Hepes buffer pH 7.4 and 0.3 M NaCl) to a level of 60–80 RU as described. Surfaces were then blocked with 1M ethanolamine (pH 8.5) for 5 minutes. […]
(§4) The specific binding responses in resonance unit (RU) for MN- (A) and YU2- (B) gp120 were recorded as a function of time (s). […] The specific binding responses in resonance unit (RU) for MN- (C, E) and YU2- (D, F) gp120 were recorded as a function of time (s), and after each injection, the surface was regenerated by a short pulse of 10 mM HCl.

Series [1] addresses T2, YU2 gp120-CD4 interaction (Human immunodeficiency virus type 1 group M subtype B, UniProt P35961).
T2 construct: HIV-1 gp120 was injected over the immobilized CD4; purchased Immunodiagnostics (Massachusetts, USA)
Type of series: binding, HIV-1. The note with it: SPR, immobilized CD4, data not shown. As for the experimental part: as §3, §4

The next series concerns HIV-1 Ba-L (B-R5). The experiment in a line: PBMC antiviral assay (RT activity), HIV-1 Ba-L. The format is cell-based. The note with it: Human immunodeficiency virus 1, BAL, PBMC, 168 h; PHA-P-activated PBMCs, 125 TCID50, day 7, RT activity. As for the experimental part:
as §2

The test system of the next series is HIV-1 LAI (B-X4). The experiment in a line: PBMC antiviral assay (RT activity), HIV-1 LAI. The format is cell-based. The note with it: Human immunodeficiency virus 1, PBMC, 168 h; PHA-P-activated PBMCs, 125 TCID50, day 7, RT activity. As for the experimental part: as §2
A short description of series [2]: Cytotoxicity by MTT method (MAGI cells). Type of series: cell-based. The conditions noted are these: human, HeLa CD4/CCR5-LTR/β-gal cells (MAGI cells); MTT, mean of triplicate ± SD. As for the experimental part:
as §1
In general terms: Formazan colour is commonly taken as a measure of viable cells.

Series [3] deals with HeLa CD4/CCR5-LTR/β-gal cells. Put plainly: Cytotoxicity by MTT method (MAGI cells). Type of series: cell-based. The conditions noted are these: concentrations up to 100 μg/ml (115.7 μM). On the procedure:
as §1

A further series concerns HIV-1 98IN017 (C-X4). Put plainly: PBMC antiviral assay (RT activity), HIV-1 98IN017. The format is cell-based. The conditions noted are these: Human immunodeficiency virus 1, PBMC, 168 h; PHA-P-activated PBMCs, 125 TCID50, day 7, RT activity. On the procedure: as §2
The next series has as its target T3, YU2 gp120 (R5-tropic) (Human immunodeficiency virus type 1 group M subtype B, UniProt P35961).
T3 construct: YU2 gp120 (50μg/mL in 10 mM acetate buffer, pH 4.8); purchased Immunodiagnostics (Massachusetts, USA)
Type of series: binding, HIV-1. The note with it: SPR, 0 to 25 μM injected. As for the experimental part:
(§5) For that purpose, CM4 sensorchips were activated with 50 μL of 0.2 M N-ethyl-N’-([…])-carbodiimide (EDC) and 0.05 M N-hydroxy-succimide (NHS) at 5 μL/min. Then soluble CD4 (10 μg/mL in 10 mM acetate buffer, pH 5), streptavidin (200 μg/mL in 10 mM acetate buffer, pH 4.2), mAb 17b (5 μg/mL in 10 mM acetate buffer, pH 5), MN gp120 (50 μg/ml in 5 mM maleate buffer, pH 6) or YU2 gp120 (50μg/mL in 10 mM acetate buffer, pH 4.8) were injected at 5 μL/min over one of the EDC/NHS activated flow cell until levels of 1200 (for sCD4), 700 (for mAb 17b), 3000 (for streptavidin), or 4500 (for gp120s) response units (RU) were achieved. HS (1 mM in phosphate-buffered saline) was biotinylated through its reducing end by reductive amination with 10 mM of biotin-LC-Hydrazine (Pierce) and captured on the streptavidin surface (20 μg/mL in 10 mM Hepes buffer pH 7.4 and 0.3 M NaCl) to a level of 60–80 RU as described. Surfaces were then blocked with 1M ethanolamine (pH 8.5) for 5 minutes.
(§6) CD4, mAb 17b and gp120 surfaces were regenerated by 1 min injection of 10 mM HCl and the HS surface was regenerated with a 1 min injection of 0.05% SDS followed by a 3 min injection of 2 M NaCl.
(§7) In order to evaluate the potential anti-viral properties of cinnamon, we first underwent a series of biochemical binding experiments using surface plasmon resonance. […]

The next series concerns the target T4, MN gp120 (X4-tropic) (Human immunodeficiency virus type 1 group M subtype B, UniProt P05877).
T4 construct: MN gp120 (50 μg/ml in 5 mM maleate buffer, pH 6); purchased Immunodiagnostics (Massachusetts, USA)
The format is binding, HIV-1. The conditions noted are these: SPR, 0 to 25 μM injected. As for the experimental part:
as §5, §6, §7

Regarding `Oc1cc(O)c2c(c1)O[C@@]1(c3ccc(O)c(O)c3)Oc3cc(O)c4c(c3[C@@H]2[C@H]1O)O[C@H](c1ccc(O)c(O)c1)[C@H](O)[C@H]4c1c(O)cc(O)c2c1O[C@H](c1ccc(O)c(O)c1)[C@H](O)C2` [IND02-trimer, cinnamtannin B1], the EC50 came to 2.8 µg/mL in the series on HIV-1 NL4-3; 3.2 ± 1.4 µM with HIV-1 NL4-3 (48 h, mean of triplicate ± SD); 1200 ± 1000 nM in the series with HIV-1 92HT599 (B-X4); 6.9 ± 2 µM in the series on HIV-1 Ba-L (B-R5); 4.6 ± 3 µM with HIV-1 LAI (B-X4); 800 nM in the series on HIV-1 98IN017 (C-X4). Also, in the series “Water solubility”, the water solubility entry is given as “water-soluble”. Moreover, the “inhibition of MN envelope binding to CD4” value at MN gp120-CD4 interaction is “did not show a significant inhibition”. In addition, in series [1], the “inhibition of YU2 envelope binding to CD4” value is given as “did not show a significant inhibition”. This compound displayed a cytotoxic concentration (CC50) in series [2] of 96 ± 4 µM. For the same compound, the cytotoxicity result in series [3] was “did not show cytotoxicity”. Also, the “binding to immobilized YU2 gp120” value at YU2 gp120 (R5-tropic) is reported as “gave binding signals”. Also, the “binding to immobilized MN gp120” value at MN gp120 (X4-tropic) is reported as “gave binding signals”.

One may read the EC50 as the concentration at which the effect is half-maximal. As a reminder, the CC50 is the concentration giving 50% cytotoxicity. Low readings indicate greater toxicity to the cells, high ones lower toxicity to the cells.
